Measurements from the NIST ThermoML archive (doi:10.1021/je050065n).

Columns and labels:
[1] = Crystal
[2] = Molar enthalpy of transition or fusion; details: Crystal
[3] = molar heat capacity at constant pressure; details: 101.33 kPa

CCCCCCCCCCCCC(=O)OCC [ethyl tridecanoate]
Details	Molar enthalpy of transition or fusion [kcal/mol]	Triple point temperature [K]
[1]	–	272.4
[2]	9.728	–

[3]
Details	molar heat capacity at constant pressure [J/K/mol]
203.72 K, Crystal	303.18
204.3 K, Crystal	304.48
206.07 K, Crystal	306.99
209.03 K, Crystal	310.71
211.98 K, Crystal	314.26
214.92 K, Crystal	318.07
217.87 K, Crystal	321.89
220.82 K, Crystal	325.88
226.72 K, Crystal	334
229.65 K, Crystal	338.41
232.57 K, Crystal	342.7
235.47 K, Crystal	347.41
238.34 K, Crystal	352.35
241.19 K, Crystal	357.3
244.03 K, Crystal	362.39
246.84 K, Crystal	368.11
249.63 K, Crystal	374.08
252.4 K, Crystal	380.86
255.15 K, Crystal	387.34
257.88 K, Crystal	398.08
260.57 K, Crystal	413.23
277.28 K, Liquid	486.51
279.73 K, Liquid	487.34
282.18 K, Liquid	488.17
288.64 K, Liquid	490.72
291.29 K, Liquid	492.03
293.93 K, Liquid	493
296.56 K, Liquid	494.67
299.2 K, Liquid	496
301.82 K, Liquid	497.42
304.44 K, Liquid	498.94
307.06 K, Liquid	500.72
309.67 K, Liquid	502.48
312.27 K, Liquid	503.98
314.87 K, Liquid	505.99
317.47 K, Liquid	507.58
320.06 K, Liquid	509.22
